By Ki is commonly meant a dissociation constant, usually derived from enzyme kinetics or from competition with a known ligand. As a reminder, the share remaining is what is left of the initial amount, in per cent. The term IC50 denotes the concentration at which inhibition is half-maximal. As a reminder, the Kd is a measure of binding affinity in units of concentration. The inhibition is the share of the control response that was lost under treatment.

For data set [1], the target named is 5-HT2B (h) (Homo sapiens, UniProt P41595). The settings on record: read-out: Ki Ref; reference compound (positive control).
Chain of 5-HT2B (h) (P41595 whole entry): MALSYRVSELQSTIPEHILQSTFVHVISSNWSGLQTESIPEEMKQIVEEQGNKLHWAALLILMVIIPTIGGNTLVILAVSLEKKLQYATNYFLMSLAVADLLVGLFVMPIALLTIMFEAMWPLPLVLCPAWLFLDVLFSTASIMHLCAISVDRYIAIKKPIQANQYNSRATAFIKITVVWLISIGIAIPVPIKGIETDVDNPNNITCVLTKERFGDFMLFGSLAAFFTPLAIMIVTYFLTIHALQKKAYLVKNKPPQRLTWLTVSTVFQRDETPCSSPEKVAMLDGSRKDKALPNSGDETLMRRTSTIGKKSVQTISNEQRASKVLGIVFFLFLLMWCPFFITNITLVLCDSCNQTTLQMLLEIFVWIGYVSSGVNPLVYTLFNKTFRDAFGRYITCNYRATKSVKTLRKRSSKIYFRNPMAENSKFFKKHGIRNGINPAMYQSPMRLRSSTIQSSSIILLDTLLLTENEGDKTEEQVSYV
The target in data set [2] is NMDA. The settings on record: read-out: Ki Ref; reference compound (positive control).
Data set [3] relates to metastatic colorectal cancer. The settings on record: patients with metastatic colorectal cancer, Phase I and II clinical trials; cited from earlier work.
The nature of data set [4]: Plasma stability assay, mouse plasma. It is filed as in vitro ADME. The settings on record: 4 h incubation, 37° C.
Data set [5] deals with T1, FAP-expressing human WI-38 fibroblasts (Homo sapiens, UniProt Q12884).
T1 construct: FAP-expressing human WI-38 fibroblasts (ECACC) were cultured in EMEM; host or cells: WI-38 human fibroblasts
T1 sequence (Q12884 whole entry): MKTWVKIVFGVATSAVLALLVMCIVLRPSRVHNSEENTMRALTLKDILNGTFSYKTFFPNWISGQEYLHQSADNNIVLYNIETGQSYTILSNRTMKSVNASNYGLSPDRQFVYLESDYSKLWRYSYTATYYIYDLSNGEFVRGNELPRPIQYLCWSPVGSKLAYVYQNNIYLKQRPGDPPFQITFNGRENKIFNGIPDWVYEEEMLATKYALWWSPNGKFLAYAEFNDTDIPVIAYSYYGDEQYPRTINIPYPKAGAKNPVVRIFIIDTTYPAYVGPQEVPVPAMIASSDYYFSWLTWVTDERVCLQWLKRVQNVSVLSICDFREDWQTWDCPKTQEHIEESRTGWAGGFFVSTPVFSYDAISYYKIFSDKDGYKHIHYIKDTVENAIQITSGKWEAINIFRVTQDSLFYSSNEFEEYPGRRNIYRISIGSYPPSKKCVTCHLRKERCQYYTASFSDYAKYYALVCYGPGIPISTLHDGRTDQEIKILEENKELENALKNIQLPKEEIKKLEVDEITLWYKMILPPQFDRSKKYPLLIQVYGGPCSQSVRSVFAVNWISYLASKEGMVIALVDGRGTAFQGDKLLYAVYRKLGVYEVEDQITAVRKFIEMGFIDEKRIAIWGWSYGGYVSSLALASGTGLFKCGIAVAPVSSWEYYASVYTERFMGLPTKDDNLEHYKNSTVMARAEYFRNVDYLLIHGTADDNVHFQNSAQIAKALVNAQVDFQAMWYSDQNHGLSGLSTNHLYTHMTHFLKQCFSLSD
The data set is described as follows: Competitive FACS binding assay. The protocol: Cells were analyzed in an Attune NxT flow cytometer. […] […].
Cells were analyzed in an Attune NxT flow cytometer. […]

Data set [6] deals with T2, Human recombinant FAP (Homo sapiens, UniProt Q12884). The data set is described as follows: Surface plasmon resonance (Biacore) assay. It is filed as binding. (In general: Surface plasmon resonance follows binding to a sensor surface in real time, without labels.)
T2 sequence (Q12884 whole entry): as above
For data set [7], the target named is T3, recombinant human PREP (Homo sapiens, UniProt P48147).
T3 construct: purchased R&D systems 4308-SE
T3 sequence (P48147 1-710): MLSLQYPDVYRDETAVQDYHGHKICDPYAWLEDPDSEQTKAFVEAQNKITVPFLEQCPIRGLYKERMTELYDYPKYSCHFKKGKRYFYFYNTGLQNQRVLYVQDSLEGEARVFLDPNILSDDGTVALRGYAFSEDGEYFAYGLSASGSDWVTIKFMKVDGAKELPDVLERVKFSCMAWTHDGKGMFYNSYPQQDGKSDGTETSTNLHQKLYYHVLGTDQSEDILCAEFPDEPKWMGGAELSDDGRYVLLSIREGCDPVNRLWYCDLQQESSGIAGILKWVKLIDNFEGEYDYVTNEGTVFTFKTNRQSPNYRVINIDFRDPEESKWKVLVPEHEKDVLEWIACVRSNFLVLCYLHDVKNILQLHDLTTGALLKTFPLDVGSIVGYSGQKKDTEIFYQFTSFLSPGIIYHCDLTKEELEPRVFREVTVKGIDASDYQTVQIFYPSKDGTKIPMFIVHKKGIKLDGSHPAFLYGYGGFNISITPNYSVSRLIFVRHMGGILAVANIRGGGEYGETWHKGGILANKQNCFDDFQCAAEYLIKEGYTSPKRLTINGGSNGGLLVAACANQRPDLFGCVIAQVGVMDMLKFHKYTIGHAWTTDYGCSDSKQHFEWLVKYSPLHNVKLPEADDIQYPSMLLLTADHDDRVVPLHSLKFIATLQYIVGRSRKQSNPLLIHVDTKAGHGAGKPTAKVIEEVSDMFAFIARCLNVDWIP
The data set is described as follows: PREP protease activity assay. The format is biochemical.

Data set [8] addresses T4, Recombinant human DPP4 (Homo sapiens, UniProt P27487).
T4 construct: purchased R&D systems 9168-SE
The data set is described as follows: DPP4 protease activity assay. It is filed as biochemical.

Data set [9] addresses T2, Human recombinant FAP. Nature of the data set: FRET-based FAP protease activity assay. It is filed as biochemical. More on the design: purchased R&D systems 3715-SE.
Data set [10] is described as follows: In vivo SPECT/CT imaging of ^111In-3BP-4560 in mice. The settings on record: ^111In-labelled, FIG. 28.
Data set [11] has as its system HEK-FAP tumor. The data set is described as follows: SPECT imaging and biodistribution of ^111In-labelled compounds in mice with HEK-FAP tumors. It is filed as in vivo. The settings on record: FIG. 21.
Data set [12] has as its target alpha 1A (h) (Homo sapiens, UniProt P35348). To be noted: read-out: Ki Ref; reference compound (positive control).
In data set [13] the test system is HEK-FAP tumors. The data set is described as follows: Efficacy study, HEK-FAP tumor model. The settings on record: throughout the study, 30 or 60 MBq.
For data set [14], the system named is Sarc4809 PDX tumors. Nature of the data set: Efficacy study, sarcoma Sarc4809 PDX model. To be noted: throughout the study, 30 or 60 MBq.
Data set [15] addresses T5, proteases (Homo sapiens, UniProt Q9UBX1).
T5 construct: BPS Biosciences (ran the screen)
It is filed as biochemical. To be noted: Cathepsin F; Reference at 1 μM.

The target in data set [16] is T6, proteases (Homo sapiens, UniProt P42574).
T6 construct: BPS Biosciences (ran the screen)
T6 sequence (P42574 29-277): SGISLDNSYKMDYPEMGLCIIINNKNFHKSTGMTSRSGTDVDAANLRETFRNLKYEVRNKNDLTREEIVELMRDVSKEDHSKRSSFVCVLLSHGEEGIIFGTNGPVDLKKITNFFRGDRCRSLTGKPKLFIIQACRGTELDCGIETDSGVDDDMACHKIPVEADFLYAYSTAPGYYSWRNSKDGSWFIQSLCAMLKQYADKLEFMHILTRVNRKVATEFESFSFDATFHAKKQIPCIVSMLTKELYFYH
It is filed as biochemical. The settings on record: Caspase-3; Reference at 100 nM.

Data set [17] addresses T7, proteases (Homo sapiens, UniProt P55210).
T7 construct: BPS Biosciences (ran the screen)
The format is biochemical. To be noted: Caspase-7; Reference at 1 μM.

The conditions of data set [18]: 24 h incubation, 37° C.
For data set [19] the following is noted: 24 h incubation, 37° C. The source holds these as a separate data set.
In data set [20] the target is Ca2+ channel (L, dihydropyridine site) (Rattus norvegicus, UniProt P22002). The data set is described as follows: biochemical. To be noted: read-out: % Inhibition of Specific Binding.
Chain of Ca2+ channel (L, dihydropyridine site) (P22002 whole entry): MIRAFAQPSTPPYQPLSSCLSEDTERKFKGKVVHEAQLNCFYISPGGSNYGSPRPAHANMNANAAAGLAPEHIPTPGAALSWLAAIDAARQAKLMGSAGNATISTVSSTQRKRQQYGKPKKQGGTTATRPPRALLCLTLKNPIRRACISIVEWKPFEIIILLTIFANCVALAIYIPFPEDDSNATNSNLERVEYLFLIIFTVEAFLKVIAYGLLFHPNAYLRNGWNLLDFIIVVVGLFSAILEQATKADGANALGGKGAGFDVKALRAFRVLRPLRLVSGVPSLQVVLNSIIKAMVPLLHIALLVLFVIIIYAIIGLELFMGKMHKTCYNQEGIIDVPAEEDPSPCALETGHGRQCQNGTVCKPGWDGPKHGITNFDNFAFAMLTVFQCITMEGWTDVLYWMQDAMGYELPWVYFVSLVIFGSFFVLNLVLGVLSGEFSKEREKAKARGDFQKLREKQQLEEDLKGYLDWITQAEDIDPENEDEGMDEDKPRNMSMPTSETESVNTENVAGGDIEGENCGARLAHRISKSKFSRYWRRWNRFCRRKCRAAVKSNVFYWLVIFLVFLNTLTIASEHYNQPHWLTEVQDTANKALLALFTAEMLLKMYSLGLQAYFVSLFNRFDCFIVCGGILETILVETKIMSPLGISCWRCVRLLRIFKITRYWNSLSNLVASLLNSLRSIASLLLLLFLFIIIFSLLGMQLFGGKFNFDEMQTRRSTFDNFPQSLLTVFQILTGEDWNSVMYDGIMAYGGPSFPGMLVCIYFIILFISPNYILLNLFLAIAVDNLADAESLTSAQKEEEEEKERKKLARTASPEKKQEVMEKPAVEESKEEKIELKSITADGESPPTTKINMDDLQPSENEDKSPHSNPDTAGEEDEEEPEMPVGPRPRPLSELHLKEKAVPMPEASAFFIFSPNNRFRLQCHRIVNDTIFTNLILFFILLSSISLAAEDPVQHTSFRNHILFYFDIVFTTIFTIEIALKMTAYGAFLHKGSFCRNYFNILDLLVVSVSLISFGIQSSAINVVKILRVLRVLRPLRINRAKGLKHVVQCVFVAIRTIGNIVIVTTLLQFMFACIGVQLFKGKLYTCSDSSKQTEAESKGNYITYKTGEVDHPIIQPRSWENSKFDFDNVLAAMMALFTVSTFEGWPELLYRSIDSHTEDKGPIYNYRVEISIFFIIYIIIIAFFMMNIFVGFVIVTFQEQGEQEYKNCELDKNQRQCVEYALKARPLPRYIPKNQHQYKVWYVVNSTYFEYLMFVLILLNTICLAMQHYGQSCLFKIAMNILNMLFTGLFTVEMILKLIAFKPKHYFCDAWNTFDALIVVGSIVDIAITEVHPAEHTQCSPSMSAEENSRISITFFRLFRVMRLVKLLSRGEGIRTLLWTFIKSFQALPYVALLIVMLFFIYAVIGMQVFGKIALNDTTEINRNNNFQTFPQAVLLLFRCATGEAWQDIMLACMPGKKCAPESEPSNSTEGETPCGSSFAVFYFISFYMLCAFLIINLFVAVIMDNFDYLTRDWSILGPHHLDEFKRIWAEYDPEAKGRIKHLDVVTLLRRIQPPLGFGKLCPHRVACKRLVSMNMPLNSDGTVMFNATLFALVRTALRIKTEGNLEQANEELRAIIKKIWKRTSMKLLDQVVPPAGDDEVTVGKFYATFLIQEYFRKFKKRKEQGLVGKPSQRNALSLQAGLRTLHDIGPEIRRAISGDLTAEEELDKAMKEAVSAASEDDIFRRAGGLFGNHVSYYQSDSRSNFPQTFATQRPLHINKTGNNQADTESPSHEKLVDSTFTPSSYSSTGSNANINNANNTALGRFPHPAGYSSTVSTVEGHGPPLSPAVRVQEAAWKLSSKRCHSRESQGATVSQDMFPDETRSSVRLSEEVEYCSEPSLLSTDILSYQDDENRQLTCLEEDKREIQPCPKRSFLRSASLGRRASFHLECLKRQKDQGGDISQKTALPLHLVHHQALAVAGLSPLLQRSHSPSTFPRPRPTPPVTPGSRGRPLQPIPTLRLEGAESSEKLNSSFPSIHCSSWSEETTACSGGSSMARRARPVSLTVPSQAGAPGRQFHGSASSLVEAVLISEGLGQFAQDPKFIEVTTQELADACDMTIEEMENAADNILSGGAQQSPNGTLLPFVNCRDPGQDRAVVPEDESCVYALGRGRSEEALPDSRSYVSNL
For data set [21], the target named is KV channel. The settings on record: read-out: Ki Ref; reference compound (positive control).
Setting [22] is: pIC50 Category (Activity), FRET-based FAP protease activity assay, recombinant human FAP, 37° C.
[23] abbreviates: pIC50 Category (Activity), FRET-peptide substrate, 37° C.

Numbered stars: 1 amine (or outer) side, 2 acyl side, 3 side chain; on linkers, the order of the positions; unused ones are H or OH. Bridge positions count the residues as written; N and C are the ends. Square brackets hold non-standard residues; d marks the D form. Peptide text beside a SMILES is read from it. * marks the point of attachment. X13 = O=C(O)CN1CCN(CC(=O)O)CCN(CC(=O)N2CCN(Cc3cc(C[*:1])cc(C[*:2])c3)CC2)CCN(CC(=O)O)CC1; X12 = O=C(O)CN1CCN(CC(=O)O)CCN(CC(=O)NCCCOCCOCCOCCCN*)CCN(CC(=O)O)CC1; mXylylene = c1cc(C[*:1])cc(C[*:2])c1; Suc = O=C(CCC(=O)[*:2])[*:1]; Nle = CCCC[C@H](N)C(=O)O; Hexanoyl = CCCCCC(=O)* Where only a bound is given, the exact number is not on record here.

T4 sequence (P27487 whole entry): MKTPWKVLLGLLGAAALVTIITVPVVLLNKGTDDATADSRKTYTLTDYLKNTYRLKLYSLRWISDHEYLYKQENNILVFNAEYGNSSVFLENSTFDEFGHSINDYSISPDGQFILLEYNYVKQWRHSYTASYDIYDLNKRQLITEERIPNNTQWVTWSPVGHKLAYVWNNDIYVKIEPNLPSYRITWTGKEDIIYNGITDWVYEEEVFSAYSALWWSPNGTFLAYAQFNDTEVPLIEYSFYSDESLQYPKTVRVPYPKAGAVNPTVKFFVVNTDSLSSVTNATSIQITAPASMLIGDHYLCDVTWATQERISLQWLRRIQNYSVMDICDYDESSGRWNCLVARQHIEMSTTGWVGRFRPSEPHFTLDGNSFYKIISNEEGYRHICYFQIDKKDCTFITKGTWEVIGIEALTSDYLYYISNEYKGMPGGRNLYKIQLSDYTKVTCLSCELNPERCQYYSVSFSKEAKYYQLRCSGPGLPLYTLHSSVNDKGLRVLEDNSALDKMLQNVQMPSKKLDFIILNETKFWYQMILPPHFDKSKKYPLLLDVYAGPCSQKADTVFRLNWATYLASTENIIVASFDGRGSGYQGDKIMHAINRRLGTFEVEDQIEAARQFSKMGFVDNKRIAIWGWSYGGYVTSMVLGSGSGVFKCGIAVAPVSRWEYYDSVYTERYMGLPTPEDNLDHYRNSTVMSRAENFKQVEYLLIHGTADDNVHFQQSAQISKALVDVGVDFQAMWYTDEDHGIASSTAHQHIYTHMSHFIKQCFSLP
T5 sequence (Q9UBX1 271-484): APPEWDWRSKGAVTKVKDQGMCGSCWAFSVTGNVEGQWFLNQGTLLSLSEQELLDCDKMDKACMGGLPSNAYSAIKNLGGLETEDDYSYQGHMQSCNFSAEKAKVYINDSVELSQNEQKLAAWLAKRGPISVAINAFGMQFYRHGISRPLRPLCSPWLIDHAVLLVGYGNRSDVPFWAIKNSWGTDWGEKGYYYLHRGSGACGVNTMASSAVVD
T7 sequence (P55210 whole entry): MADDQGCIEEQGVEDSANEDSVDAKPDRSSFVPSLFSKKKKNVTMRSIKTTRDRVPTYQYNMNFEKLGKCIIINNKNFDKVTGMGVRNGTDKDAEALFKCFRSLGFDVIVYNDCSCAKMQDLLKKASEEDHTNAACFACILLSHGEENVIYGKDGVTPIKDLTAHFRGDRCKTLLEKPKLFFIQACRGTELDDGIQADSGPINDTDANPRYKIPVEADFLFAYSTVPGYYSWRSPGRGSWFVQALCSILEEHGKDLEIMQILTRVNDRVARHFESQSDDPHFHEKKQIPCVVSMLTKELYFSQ

With `COc1cc(CC(C)N)c(OC)cc1I` (racemic) [(±)DOI], the Ki in data set [1] came out at 4.2 nM.
Regarding `O=C(O)[C@@H]1C[C@H](CP(=O)(O)O)CCN1` [CGS 19755], the Ki in [2] is 140 nM.
With Sibrotuzumab, the “patients having stable disease” value in [3] was 2 out of 17.
As for `CCCC[C@H](NC(=O)CCC(=O)NCCCOCCOCCOCCCNC(=O)CN1CCN(CC(=O)O)CCN(CC(=O)O)CCN(CC(=O)O)CC1)C(=O)N[C@H]1CSCc2cccc(c2)CSC[C@@H](C(=O)N[C@@H](CC(=O)O)C(=O)N[C@@H](Cc2c[nH]cn2)C(=O)N[C@@H](Cc2ccccc2)C(=O)N[C@@H](CCCNC(=N)N)C(=O)N[C@@H](CC(=O)O)C(N)=O)NC(=O)[C@H](Cc2ccccc2)NC(=O)[C@H](CCC(=O)O)NC(=O)[C@H]([C@@H](C)O)NC(=O)[C@@H]2CCCN2C(=O)[C@@H]2CCCN2C1=O` [3BP-3168, DOTA-Ttds-Nle-[Cys(3MeBn)-Pro-Pro-Thr-Glu-Phe-Cys]-Asp-His-Phe-Arg-Asp-NH2] ({X12-Suc}-[Nle]CPPTEFCDHFRD-NH2; linker 2-8 via mXylylene), the amount remaining at 4 h, 9.8 µM in [4] (mouse, plasma, read-out: % intact compound remaining after incubation, Mouse plasma) is 100%. Further, the IC50 in data set [5] is < 10 nM; in [7] it was > 1000 nM; in data set [8], > 1000 nM; in data set [9] (pIC50 (highest activity categories), text on Table 9 categories (FACS binding and FAP activity assay)) it was < 10 nM; in [9] (setting [22]), < 10 nM. The Kd in [6] was < 10 nM.
For `CCCC[C@H](NC(=O)CCC(=O)NCCCOCCOCCOCCCNC(=O)CN1CCN(CC(=O)O)CCN(CC(=O)O)CCN(CC(=O)O)CC1)C(=O)N[C@H]1CSCc2cccc(c2)CSC[C@@H](C(=O)N[C@@H](CC(=O)O)C(N)=O)NC(=O)[C@H](Cc2ccccc2)NC(=O)[C@H](CCC(=O)O)NC(=O)[C@H]([C@@H](C)O)NC(=O)[C@@H]2CCCN2C(=O)[C@@H]2CCCN2C1=O` [3BP-3320, DOTA-Ttds-Nle-[Cys(3MeBn)-Pro-Pro-Thr-Glu-Phe-Cys]-Asp-NH2] ({X12-Suc}-[Nle]CPPTEFCD-NH2; linker 2-8 via mXylylene), the “% intact compound remaining after incubation, Mouse plasma” value in data set [4] is on record as 75%. For the same compound, the IC50 in [5] is 10 to 79.4 nM; in data set [7], > 1000 nM; in data set [8], > 1000 nM; in [9] (setting [22]) it was < 10 nM. The Kd in data set [6] was < 10 nM.
Regarding `CCCCNC(=O)N[C@H]1CSCc2cc(CSCCNC(=O)CN3CCN(CC(=O)O)CCN(CC(=O)O)CCN(CC(=O)O)CC3)cc(c2)CSC[C@@H](C(N)=O)NC(=O)[C@H](Cc2ccccc2)NC(=O)[C@H](CCC(N)=O)NC(=O)[C@H]([C@@H](C)O)NC(=O)[C@@H]2CCCN2C(=O)[C@@H]2CCCN2C1=O` [3BP-4560, nBu-CAyl-[Cys(tMeBn(DOTA-AET))-Pro-Pro-Thr-Gln-Phe-Cys]-NH2], the IC50 in data set [5] and in data set [9] (setting [23]) was < 10 nM in each case. Also, in data set [6], the Kd was < 10 nM. In addition, in [10], the “uptake in healthy tissues (biodistribution)” value was “very low uptake in healthy tissues”.
Take `CCCCNC(=O)N[C@H]1CSCc2cc(CSCCNC(=O)CN3CCN(CC(=O)O)CCN(CC(=O)O)CCN(CC(=O)O)CC3)cc(c2)CSC[C@@H](C(=O)O)NC(=O)[C@H](Cc2ccccc2)NC(=O)[C@H](CCC(N)=O)NC(=O)[C@H]([C@@H](C)O)NC(=O)[C@@H]2CCCN2C(=O)[C@@H]2CCCN2C1=O` [3BP-3940, nBu-CAyl-[Cys(tMeBn(DOTA-AET))-Pro-Pro-Thr-Gln-Phe-Cys]-OH]: the IC50 in data set [5] and in [9] (setting [23]) was < 10 nM throughout. Also, the Kd in [6] is < 10 nM. For the same compound, the “pKD Category” value in [6] (Biacore assay) is reported as “A (Category A stands for pKD values >8.0)”. In addition, the “uptake in healthy tissues (biodistribution)” value in data set [11] is given as “very low uptake in healthy tissues”.
Consider `COc1cccc(OC)c1OCCNCC1COc2ccccc2O1` (centres unmarked) [WB 4101], for which the Ki in data set [12] is 0.24 nM.
Turning to `CCCCCC(=O)N[C@H]1CSCc2cc(CSCCNC(=O)CN3CCN(CC(=O)O)CCN(CC(=O)O)CCN(CC(=O)O)CC3)cc(c2)CSC[C@@H](C(=O)O)NC(=O)[C@H](Cc2ccccc2)NC(=O)[C@H](CCC(N)=O)NC(=O)[C@H]([C@@H](C)O)NC(=O)[C@@H]2CCCN2C(=O)[C@@H]2CCCN2C1=O` [^177Lu-3BP-3554, metal not drawn], the body weight loss result in data set [13] is “No treatment-related body weight loss”. The “body weight loss (BWL)” value in data set [14] was “No treatment-related body weight loss”.
In the case of Cystatin C, the “Percentage inhibition (%)” value in data set [15] stood at 74%.
Consider `COC[C@@H]1CCCN1S(=O)(=O)c1ccc2c(c1)C(=O)C(=O)N2` [Caspase 3/7 Inhibitor I], for which the entries for the “Percentage inhibition (%)” value in [16] and in data set [17] were 89% and 92%, respectively.
Regarding `CCCCCC(=O)N[C@H]1CSCc2cc(cc(CN3CCN(C(=O)CN4CCN(CC(=O)O)CCN(CC(=O)O)CCN(CC(=O)O)CC4)CC3)c2)CSC[C@@H](C(=O)N[C@@H](CC(=O)O)C(N)=O)NC(=O)[C@H](Cc2ccccc2)NC(=O)[C@H](CCC(N)=O)NC(=O)[C@H]([C@@H](C)O)NC(=O)[C@@H]2CCCN2C(=O)[C@@H]2CCCN2C1=O` [3BP-3407, Hex-[Cys(tMeBn(DOTA-PP))-Pro-Pro-Thr-Gln-Phe-Cys]-Asp-NH2] (Hexanoyl-CPPTQFCD-NH2; linker 1-7 via X13), the “% intact compound remaining after incubation, Human plasma” value in data set [18] was 100% (24 h). In addition, the “% intact compound remaining after incubation, Rat plasma” value in data set [19] is recorded as 100% (24 h). For the same compound, the inhibition at 10 µM in [20] was found to be 42%.
Take alpha-dendrotoxin: the Ki in [21] is 0.097 nM.
Turning to `CCCCCC(=O)N[C@H]1CSCc2cc(CSCCNC(=O)CN3CCN(CC(=O)O)CCN(CC(=O)O)CCN(CC(=O)O)CC3)cc(c2)CSC[C@@H](C(=O)O)NC(=O)[C@H](Cc2ccccc2)NC(=O)[C@H](CCC(N)=O)NC(=O)[C@H]([C@@H](C)O)NC(=O)[C@@H]2CCCN2C(=O)[C@@H]2CCCN2C1=O` [3BP-3554, Hex-[Cys(tMeBn(DOTA-AET))-Pro-Pro-Thr-Gln-Phe-Cys]-OH], in data set [18], the “% intact compound remaining after incubation, Human plasma” value is recorded as 100% (24 h). For the same compound, the “% intact compound remaining after incubation, Rat plasma” value in data set [19] was 100% (24 h). For the same compound, the inhibition at 10 µM in data set [20] was determined as 54%.

Values taken from patent US20230212549A1, “COMPOUNDS COMPRISING A […] LIGAND AND USE THEREOF” (priority 2021, published 2023).
